According to patent US20210070748A1, “INHIBITORS OF BRUTONS TYROSINE KINASE” (Pharmacyclics LLC, priority 2015, published 2021):
Where two headings read alike, the source gives them in different places.

Columns and labels:
Assay type in all cases: biochemical
BTK-WT = biological target: T1, BTK-WT (Homo sapiens, UniProt Q06187); test: Btk in vitro inhibitory activity (one of Method A TR-FRET, Method B electrophoretic mobility shift, Method C radiometric filter binding)
T1 construct: purified from insect cells as a full-length construct containing an N-terminal 6X-His tag; His6 (N); made in house; host or cells: insect cells (baculovirus Sf21 in Method B)

JAK3 = biological target: T2, JAK3 (Homo sapiens, UniProt P52333); test: Inhibition of a panel of kinases, in vitro HotSpot kinase assay: JAK3; conditions: for IC50: 1 μM ATP, read-out: IC50 JAK3; for JAK3* IC50 relative to Btk IC50 value: fold relative to Btk IC50 value
T2 sequence (P52333 1-1124): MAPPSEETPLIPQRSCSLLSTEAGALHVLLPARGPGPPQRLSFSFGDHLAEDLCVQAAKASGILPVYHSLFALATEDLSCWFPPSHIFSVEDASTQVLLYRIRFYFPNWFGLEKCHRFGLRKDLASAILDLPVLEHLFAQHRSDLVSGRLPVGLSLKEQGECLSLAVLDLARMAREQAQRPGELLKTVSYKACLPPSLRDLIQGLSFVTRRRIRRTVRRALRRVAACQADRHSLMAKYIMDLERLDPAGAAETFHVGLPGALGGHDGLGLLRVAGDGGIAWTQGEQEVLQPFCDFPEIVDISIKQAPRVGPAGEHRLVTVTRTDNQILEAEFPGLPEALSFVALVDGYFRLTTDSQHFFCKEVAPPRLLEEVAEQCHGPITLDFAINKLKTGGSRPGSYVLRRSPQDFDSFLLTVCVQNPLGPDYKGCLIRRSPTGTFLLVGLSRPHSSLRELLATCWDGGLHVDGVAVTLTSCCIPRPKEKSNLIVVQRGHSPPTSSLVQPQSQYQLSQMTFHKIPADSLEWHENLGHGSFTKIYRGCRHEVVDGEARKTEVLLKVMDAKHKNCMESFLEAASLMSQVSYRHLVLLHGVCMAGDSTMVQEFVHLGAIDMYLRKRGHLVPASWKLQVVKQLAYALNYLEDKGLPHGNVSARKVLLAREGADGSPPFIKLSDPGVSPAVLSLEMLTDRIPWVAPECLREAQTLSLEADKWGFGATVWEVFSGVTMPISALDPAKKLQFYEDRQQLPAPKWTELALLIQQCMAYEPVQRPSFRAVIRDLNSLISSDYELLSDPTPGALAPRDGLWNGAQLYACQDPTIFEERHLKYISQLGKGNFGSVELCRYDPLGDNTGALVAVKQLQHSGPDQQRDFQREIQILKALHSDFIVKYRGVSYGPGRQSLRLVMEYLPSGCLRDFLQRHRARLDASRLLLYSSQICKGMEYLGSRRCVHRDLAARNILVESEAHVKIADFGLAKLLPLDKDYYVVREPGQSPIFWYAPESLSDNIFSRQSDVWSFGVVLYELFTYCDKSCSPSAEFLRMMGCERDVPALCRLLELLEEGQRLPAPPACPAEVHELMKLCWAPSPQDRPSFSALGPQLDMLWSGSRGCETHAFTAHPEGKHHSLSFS

LCK = LCK (Homo sapiens, UniProt P06239); test: Inhibition of a panel of kinases, in vitro HotSpot kinase assay: LCK; conditions: for IC50: 1 μM ATP, read-out: IC50 LCK; for LCK* IC50 relative to Btk IC50 value: fold relative to Btk IC50 value
EGFR = EGFR (Homo sapiens, UniProt P00533); test: Inhibition of a panel of kinases, in vitro HotSpot kinase assay: EGFR; conditions: for IC50: 1 μM ATP; for EGFR* IC50 relative to Btk IC50 value: fold relative to Btk IC50 value
Description: (§1) The degree of inhibition of a panel of kinases is determined using the in vitro HotSpot kinase assay (purified enzymes, ^33P-ATP, an appropriate substrate and 1 μM ATP).

SRC = SRC (Homo sapiens, UniProt P12931); test: Inhibition of a panel of kinases, in vitro HotSpot kinase assay: SRC; conditions: for IC50: 1 μM ATP; for SRC* IC50 relative to Btk IC50 value: fold relative to Btk IC50 value
Description: as §1

[1] = Table 15, C compounds, read-out: IC50 BTK-WT
[2] = Table 13, A compounds, read-out: IC50 BTK-WT

T1 sequence (Q06187 whole entry): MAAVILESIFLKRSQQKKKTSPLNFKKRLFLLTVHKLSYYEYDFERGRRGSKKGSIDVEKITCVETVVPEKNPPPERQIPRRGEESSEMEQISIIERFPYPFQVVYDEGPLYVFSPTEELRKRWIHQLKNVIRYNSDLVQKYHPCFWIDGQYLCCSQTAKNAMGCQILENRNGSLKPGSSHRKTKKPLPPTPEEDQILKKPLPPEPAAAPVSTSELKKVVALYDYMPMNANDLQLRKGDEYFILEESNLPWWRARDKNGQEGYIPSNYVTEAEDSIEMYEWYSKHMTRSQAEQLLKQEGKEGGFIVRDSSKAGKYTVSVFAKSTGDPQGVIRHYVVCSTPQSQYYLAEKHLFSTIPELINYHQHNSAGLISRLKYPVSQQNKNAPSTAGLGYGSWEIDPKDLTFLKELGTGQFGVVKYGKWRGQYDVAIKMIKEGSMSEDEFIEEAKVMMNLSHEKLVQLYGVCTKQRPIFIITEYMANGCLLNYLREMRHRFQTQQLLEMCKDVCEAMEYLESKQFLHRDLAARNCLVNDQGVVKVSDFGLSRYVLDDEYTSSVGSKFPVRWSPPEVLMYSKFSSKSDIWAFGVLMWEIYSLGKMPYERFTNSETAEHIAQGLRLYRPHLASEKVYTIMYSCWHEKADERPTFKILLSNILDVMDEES
Chain of SRC (P12931 whole entry): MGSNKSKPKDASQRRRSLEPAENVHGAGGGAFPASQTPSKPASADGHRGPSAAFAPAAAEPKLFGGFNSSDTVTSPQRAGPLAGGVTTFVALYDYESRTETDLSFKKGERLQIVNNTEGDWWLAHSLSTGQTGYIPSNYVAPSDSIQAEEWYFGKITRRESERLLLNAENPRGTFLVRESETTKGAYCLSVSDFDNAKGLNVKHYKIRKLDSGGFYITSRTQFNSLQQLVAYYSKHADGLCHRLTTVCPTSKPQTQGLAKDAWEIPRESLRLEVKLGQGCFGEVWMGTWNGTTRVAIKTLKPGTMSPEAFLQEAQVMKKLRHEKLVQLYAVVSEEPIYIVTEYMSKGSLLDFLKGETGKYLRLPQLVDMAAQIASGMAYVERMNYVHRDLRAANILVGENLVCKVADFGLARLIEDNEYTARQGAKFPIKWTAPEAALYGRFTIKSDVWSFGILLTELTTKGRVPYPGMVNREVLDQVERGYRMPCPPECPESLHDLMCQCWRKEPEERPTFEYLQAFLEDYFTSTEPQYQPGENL
Chain of EGFR (P00533 25-1210): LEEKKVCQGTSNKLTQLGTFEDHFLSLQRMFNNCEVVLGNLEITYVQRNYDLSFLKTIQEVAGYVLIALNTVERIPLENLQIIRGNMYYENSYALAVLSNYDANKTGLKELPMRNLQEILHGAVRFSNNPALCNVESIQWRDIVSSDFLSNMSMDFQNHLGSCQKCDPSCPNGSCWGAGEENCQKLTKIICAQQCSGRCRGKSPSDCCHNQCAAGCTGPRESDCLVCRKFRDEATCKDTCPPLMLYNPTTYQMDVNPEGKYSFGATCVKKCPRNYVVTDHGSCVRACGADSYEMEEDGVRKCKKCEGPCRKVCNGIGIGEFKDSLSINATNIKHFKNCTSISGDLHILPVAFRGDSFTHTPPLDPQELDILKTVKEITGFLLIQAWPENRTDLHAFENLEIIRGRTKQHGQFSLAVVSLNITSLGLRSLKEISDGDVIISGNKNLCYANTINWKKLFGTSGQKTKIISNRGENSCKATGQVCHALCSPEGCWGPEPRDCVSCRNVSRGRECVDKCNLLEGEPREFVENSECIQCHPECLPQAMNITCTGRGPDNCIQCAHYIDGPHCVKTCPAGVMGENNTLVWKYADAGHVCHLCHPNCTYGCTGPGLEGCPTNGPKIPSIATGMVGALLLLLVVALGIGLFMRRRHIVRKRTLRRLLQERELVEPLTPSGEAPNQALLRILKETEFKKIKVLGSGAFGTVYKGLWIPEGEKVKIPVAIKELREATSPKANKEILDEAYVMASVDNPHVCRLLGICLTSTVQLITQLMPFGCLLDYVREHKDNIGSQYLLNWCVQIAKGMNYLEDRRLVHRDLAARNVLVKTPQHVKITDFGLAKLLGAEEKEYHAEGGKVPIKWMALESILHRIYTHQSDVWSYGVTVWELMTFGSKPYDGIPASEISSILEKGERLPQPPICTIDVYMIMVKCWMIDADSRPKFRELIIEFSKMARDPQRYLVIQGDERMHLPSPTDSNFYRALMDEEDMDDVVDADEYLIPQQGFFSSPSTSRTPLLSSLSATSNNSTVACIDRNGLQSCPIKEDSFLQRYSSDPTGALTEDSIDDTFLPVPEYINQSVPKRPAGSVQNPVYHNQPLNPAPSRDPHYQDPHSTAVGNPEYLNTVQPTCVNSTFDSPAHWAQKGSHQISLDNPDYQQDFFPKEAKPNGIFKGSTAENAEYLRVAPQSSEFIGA
Chain of LCK (P06239 whole entry): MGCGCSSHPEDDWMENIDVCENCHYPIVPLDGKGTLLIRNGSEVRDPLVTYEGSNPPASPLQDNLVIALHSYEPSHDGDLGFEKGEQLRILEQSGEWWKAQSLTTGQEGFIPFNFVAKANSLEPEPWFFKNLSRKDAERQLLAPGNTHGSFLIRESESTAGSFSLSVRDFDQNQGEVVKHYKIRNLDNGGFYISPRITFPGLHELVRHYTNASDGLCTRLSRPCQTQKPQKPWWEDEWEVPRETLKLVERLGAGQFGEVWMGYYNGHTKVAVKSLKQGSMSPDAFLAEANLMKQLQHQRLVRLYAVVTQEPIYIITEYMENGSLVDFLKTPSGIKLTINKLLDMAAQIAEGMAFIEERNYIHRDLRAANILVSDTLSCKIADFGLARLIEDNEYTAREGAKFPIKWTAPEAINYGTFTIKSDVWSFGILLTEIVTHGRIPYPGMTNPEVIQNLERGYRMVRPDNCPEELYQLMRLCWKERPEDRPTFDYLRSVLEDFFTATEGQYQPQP

SMILES | IC50 (BTK-WT; [1]) [nM] | IC50 (JAK3; Table 15, C compounds) [nM] | IC50 (LCK; Table 15, C compounds) [nM] | IC50 (EGFR; Table 15, C compounds) [nM] | IC50 (SRC; Table 15, C compounds) [nM] | IC50 (BTK-WT; [2]) [nM] | IC50 (JAK3; Table 13, A compounds) [nM] | IC50 (LCK; Table 13, A compounds) [nM] | IC50 (EGFR; Table 13, A compounds) [nM] | IC50 (SRC; Table 13, A compounds) [nM] | also measured
C[C@@H]1[C@H](NC(=O)N(C)C)CCCN1c1cnc(C(N)=O)c(Nc2ccc(N3CCN(C)CC3)cc2)n1 [Example A-100, 5-[(2R,3R)-3-[(dimethylcarbamoyl)amino]-2-methylpiperidin-1-yl]-3-{[4-(4-methylpiperazin-1-yl)phenyl]amino}pyrazine-2-carboxamide] |  |  |  |  |  | ≤ 10 | 100 to 1000 | 100 to 1000 | 100 to 1000 | 10 to 100 | 
Cn1cc(Nc2nc(N3CCC[C@@H](NC(=O)c4ccc(C5CC5)cc4)C3)nnc2C(N)=O)cn1 [Example A-202, 3-[(3R)-3-(4-cyclopropylbenzamido)piper-idin-1-yl]-5-[(1-methyl-1H-pyrazol-4-yl)amino]-1,2,4-triazine-6-carboxamide] |  |  |  |  |  |  |  |  |  |  | IC50 (BTK-WT; read-out: BTK-WT IC50): < 10 nM; JAK3* IC50 relative to Btk IC50 value (JAK3): 631x; LCK* IC50 relative to Btk IC50 value (LCK): 107x; EGFR* IC50 relative to Btk IC50 value (EGFR): 5208x; SRC* IC50 relative to Btk IC50 value (SRC): 159x
C[C@@H]1[C@H](NC(=O)c2ccc(C(C)(C)O)cc2)CCCN1c1cnc(C(N)=O)c(Nc2cnn(C)c2)n1 [Example A-200, 5-((2R,3R)-3-(4-(2-hydroxypropan-2-yl)benzamido)-2-methyl-piperidin-1-yl)-3-(1-methyl-1H-pyrazol-4-yl-amino)pyrazine-2-carboxamide] |  |  |  |  |  |  |  |  |  |  | IC50 (BTK-WT; read-out: BTK-WT IC50): < 10 nM; JAK3* IC50 relative to Btk IC50 value (JAK3): 411x; LCK* IC50 relative to Btk IC50 value (LCK): 88x; EGFR* IC50 relative to Btk IC50 value (EGFR): 380x; SRC* IC50 relative to Btk IC50 value (SRC): 40x
C[C@@H]1[C@H](NC(=O)c2cc3c(n2C)CC(C)(C)C3)CCCN1c1cnc(C(N)=O)c(Nc2cnn(C)c2)n1 [Example A-193, N-((2R,3R)-1-(5-carbamoyl-6-(1-methyl-1H-pyrazol-4-ylamino)pyrazin-2-yl)-2-methylpiperidin-3-yl)-1,5,5-trimethyl-1,4,5,6-tetrahydrocyclo-penta[b]pyrrole-2-carboxamide] |  |  |  |  |  | ≤ 10 | 100 to 1000 | 100 to 1000 | 100 to 1000 | 100 to 1000 | 
Cc1nn(C)cc1Nc1nc(N2CCC[C@@H](NC(=O)c3ccc(C4CC4)cc3)[C@H]2C)cnc1C(N)=O [Example A-192, 5-((2R,3R)-3-(4-cyclopropylbenzamido)-2-methylpiperidin-1-yl)-3-(1,3-dimethyl-1H-pyrazol-4-ylamino)pyrazine-2-carboxamide] |  |  |  |  |  | 10 to 100 | > 10000 | > 10000 | 1000 to 10000 | > 10000 | 
CN1CCN(c2ccc(Nc3nc(N4CCC[C@@H](n5ccc6cc(C7CC7)ccc6c5=O)C4)cnc3C(N)=O)cc2)CC1 [Example A-99, 5-[(3R)-3-(6-cyclo-propyl-1-oxo-1,2-dihydroisoquinolin-2-yl)piperidin-1-yl]-3-{[4-(4-methylpiperazin-1-yl)phenyl]amino}pyrazine-2-carboxamide] |  |  |  |  |  | ≤ 10 | 1000 to 10000 | 100 to 1000 | > 10000 | 100 to 1000 | 
C[C@@H]1[C@H](NC(=O)c2ccc(C3CC3)cc2)CCCN1c1cnc(C(N)=O)c(Nc2cnn(C(F)F)c2)n1 [Example A-198, 5-[(2R,3R)-3-(4-cyclopropylbenzamido)-2-methylpiperidin-1-yl]-3-{[1-(difluoromethyl)-1H-pyrazol-4-yl]amino}pyrazine-2-carboxamide] |  |  |  |  |  |  |  |  |  |  | IC50 (BTK-WT; read-out: BTK-WT IC50): < 10 nM; JAK3* IC50 relative to Btk IC50 value (JAK3): 1276x; LCK* IC50 relative to Btk IC50 value (LCK): 112x; EGFR* IC50 relative to Btk IC50 value (EGFR): 1276x; SRC* IC50 relative to Btk IC50 value (SRC): 69x
Cc1c(Nc2nc(N3CCC[C@@H](NC(=O)c4ccc(C5CC5)cc4)[C@H]3C)cnc2C(N)=O)cnn1C [Example A-191, 5-((2R,3)R-3-(4-cyclopropylbenzamido)-2-methylpiperidin-1-yl)-3-(1,5-dimethyl-1H-pyrazol-4-ylamino)pyrazine-2-carboxamide] |  |  |  |  |  | 10 to 100 | > 10000 | 1000 to 10000 | 1000 to 10000 | 1000 to 10000 | 
C[C@@H]1[C@H](NC(=O)c2ccc(C3COC3)cc2)CCCN1c1cnc(C(N)=O)c(Nc2cnn(C)c2)n1 [Example A-206, 3-(1-methyl-1H-pyrazol-4-ylamino)-5-((2R,3R)-2-methyl-3-(4-(oxetan-3-yl)benzamido)piperidin-1-yl)pyrazine-2-carboxamide] |  |  |  |  |  |  |  |  |  |  | IC50 (BTK-WT; read-out: BTK-WT IC50): < 10 nM; JAK3* IC50 relative to Btk IC50 value (JAK3): 341x; LCK* IC50 relative to Btk IC50 value (LCK): 63x; EGFR* IC50 relative to Btk IC50 value (EGFR): 896x; SRC* IC50 relative to Btk IC50 value (SRC): 33x
C=CC(=O)N1CCC[C@@H](N(C)c2cnc(C(N)=O)c(Nc3ccc(C4(C)CCN(C5CCCC5)CC4)cc3)n2)C1 [Example C-44, (R)-5-((1-acryloylpiperidin-3-yl)(methyl)amino)-3-(4-(1-cyclopentyl-4-methylpiperidin-4-yl)phenylamino) pyrazine-2-carboxamide] | ≤ 10 | < 10 | < 10 | ≤ 10 | ≤ 10 |  |  |  |  |  | 
C[C@@H]1[C@H](NC(=O)N(C)C)CCCN1c1cnc(C(N)=O)c(Nc2ccc(C(=O)N3CCN(C)CC3)cc2)n1 [Example A-98, 5-[(2R,3R)-3-[(dimethylcarbamoyl)amino]-2-methylpiperidin-1-yl]-3-{[4-(4-methylpiperazine-1-carbonyl)phenyl]amino}pyrazine-2-carboxamide] |  |  |  |  |  | ≤ 10 | 1000 to 10000 | 100 to 1000 | 1000 to 10000 | 100 to 1000 | 

The next lines start with results.

IC50 (BTK-WT; [1]) [nM] | IC50 (JAK3; Table 15, C compounds) [nM] | IC50 (LCK; Table 15, C compounds) [nM] | IC50 (EGFR; Table 15, C compounds) [nM] | IC50 (SRC; Table 15, C compounds) [nM] | IC50 (BTK-WT; [2]) [nM] | IC50 (JAK3; Table 13, A compounds) [nM] | IC50 (LCK; Table 13, A compounds) [nM] | IC50 (EGFR; Table 13, A compounds) [nM] | IC50 (SRC; Table 13, A compounds) [nM] | SMILES | also measured
≤ 10 | < 10 | 10 to 100 | ≤ 10 | 10 to 100 |  |  |  |  |  | C=CC(=O)N1CCC[C@@H](Nc2cnc(C(N)=O)c(Nc3ccc(C4CCN(C5CCCC5)CC4)cc3)n2)C1 [Example C-84, (R)-5-(1-acryloylpiperidin-3-ylamino)-3-(4-(1-cyclopentylpiperidin-4-yl)phenylamino)pyrazine-2-carboxamide] | 
≤ 10 | < 10 | 100 to 1000 | ≤ 10 |  |  |  |  |  |  | C=CC(=O)N1CCC[C@@H](Nc2nnc(C(N)=O)c(Nc3ccc(C(C)(C)C)cc3)n2)C1 [Example C-40, (R)-3-(1-acryloylpiperidin-3-ylamino)-5-(4-tert-butylphenylamino)-1,2,4-triazine-6-carboxamide] | 
≤ 10 | < 10 | 10 to 100 | ≤ 10 | 10 to 100 |  |  |  |  |  | C=CC(=O)N1CCC[C@@H](Nc2nnc(C(N)=O)c(Nc3cc(C)ns3)n2)C1 [Example C-56, (R)-3-(1-acryloylpiperidin-3-ylamino)-5-(3-methylisothiazol-5-ylamino)-1,2,4-triazine-6-carboxamide] | 
≤ 10 | 10 to 100 | 1000 to 10000 |  | 100 to 1000 |  |  |  |  |  | C=CC(=O)N1CCC[C@@H](N(C)c2cnc(C(N)=O)c(Nc3ccc(C(C)C)cc3)n2)C1 [Example C-42, (R)-5-((1-acryloylpiperidin-3-yl)(methyl)amino)-3-(4-isopropylphenylamino) pyrazine-2-carboxamide] | 
≤ 10 | < 10 | 100 to 1000 | 10 to 100 | 10 to 100 |  |  |  |  |  | C=CC(=O)N1CC[C@@H](N(C)c2cnc(C(N)=O)c(Nc3ccc(C4CCN(C5CCCC5)CC4)cc3)n2)C1 [Example C-85, (R)-5-((1-acryloylpyrrolidin-3-yl)(methyl)amino)-3-(4-(1-cyclopentylpiperidin-4-yl)phenylamino) pyrazine-2-carboxamide] | 
